Laboratory results taken from US20230346272A1 (priority 2021, published 2023).

Assay: Differential Pulse Voltammetry (DPV) with microneedle sensor array, oxycodone and metabolites (FIG. 10)
Type: physicochemical
Settings: applied voltages from 0 to 1.2V

Row | Structure (SMILES) | current peak (DPV) | voltage of the current peak (DPV)
1 | COc1ccc2c3c1O[C@H]1C(=O)CC[C@@]4(O)[C@@H](C2)NCC[C@]314 [noroxycodone] | about 165 μA | about 0.95 V
2 | CN1CC[C@]23c4c5ccc(O)c4O[C@H]2C(=O)CC[C@@]3(O)[C@H]1C5 [oxymorphone] | about 30 μA | about 0.45 V
3 | COc1ccc2c3c1O[C@H]1C(=O)CC[C@@]4(O)[C@@H](C2)N(C)CC[C@]314 [oxycodone] | about 100 μA | about 0.75 V
